Data published in patent US20240027453A1, “METHOD FOR DETECTION AND QUANTITATIVE MONITORING OF INFECTIONS WITH HERPESVIRUSES” (The Trustees of Princeton University, priority 2020, published 2024).
Like-named read-outs stand apart in the source and are kept apart here.

Tested on: HCMV
Format: cell-based
Description: In example herpesvirus PRM assay methods shown herein, cell pellets were lysed in 2% SDS, 100 mM NaCl, 0.5 mM EDTA, 50 mM Tris, pH 8.2, and 50 μg of protein was reduced and alkylated with 25 mM TCEP and 50 mM CAM respectively for 20 min at 70° C. Proteins were then precipitated via methanol chloroform precipitation (Wessel & Flugg, Anal Biochem. 138(1):141-143, 1984), resuspended in 50 mM HEPES, pH 8.2 and digested overnight with trypsin (50:1 protein:enzyme w/w ratio). Digested peptides were desalted by SDB-RPS StageTip as previously described (Lum et al., Cell Syst., 7(6):[…], 2018; Greco et al., Methods Mol Biol 1410:39-63, 2016; Federspiel & Cristea, Methods Mol Biol., 1977:115-143, 2019).
Peptides (1.0 μg on column) were analyzed by LC-MS/MS using a Dionex Ultimate 3000 UHPLC coupled online to an EASYSpray ion source and a Q Exactive HF. Peptides were separated on an EASYSpray C18 column (75 μm×25 cm) heated to 50° C. using a linear gradient of 5% B to 32% B over 60 min at a flow rate of 250 nL/min and were ionized at 1.7 kv. Mobile phase A consisted of 0.1% FA in H2O and mobile phase B consisted of 0.1% FA, 2.9% H2O in ACN.
The PRM method was controlled by a peptide inclusion list with retention time windows of 6 min for selected precursor ions.
The PRM assay was developed and analyzed using the open-source software Skyline (Maclean et al., Bioinformatics 26(7):966-968, 2010). Summed area under the curve of 3-4 transitions per peptide was used for quantitation. Targeted peptides were normalized to host protein loading control peptides. Peptide values for each sample were scaled to the average of each peptide across all runs. The average of multiple peptides was used as the inferred value for the protein measurement when more than one peptide was quantified (Federspiel et al., PLoS Biol. 17(9):e3000437. Doi: 10.1371/journal.pbio.3000437). PRM quantitation data were graphed using the Python Seaborn and Matplotlib libraries.
MRC5 primary human fibroblasts (HFs) (ATCC CCL-171) were used as the model system for HSV-1 and HCMV infections and were cultured in complete growth medium (DMEM supplemented with 10% fetal bovine serum and 1% penicillin-streptomycin antibiotics) at 37° C. and 5% CO2. iSLK.219 cells harboring latent KSHV (a gift from Dr. Britt Glaunsinger, University of California, Berkeley) were grown in complete growth medium supplemented with 500 μg/ml hygromycin (ThermoFisher Scientific, 10687010) at 37° C. and 5% CO2. All cells were used for experiments within a maximum of 10 passages.
Wild type HSV-1 strain 17+ (a gift from Beate Sodeik, Hannover Medical School, Hannover, Germany) was propagated as previously described (Diner et al., 2015). Briefly, PO stocks were generated by electroporating pBAC-HSV-1 into U-2 OS cells. […] In a similar manner, wild type HCMV strain AD169 was produced from BAC electroporation into HFs and working stocks were propagated by infecting HFs at a low level. In both cases, cell-associated virus was released by sonication, combined with supernatant virus, then concentrated by ultracentrifugation (20,000 rpm, 2 hours, 4° C. with SW28 swinging bucket rotor [Beckman Coulter]) over a 10% ficoll (HSV-1) or 20% sorbitol (HCMV) cushion. Virus stock titers were determined by plaque assay for HSV-1 or tissue culture infectious dose (TCID50) for HCMV and infections were performed at a multiplicity of infection (MOI) of 3.
12 hours prior to virus infection or reactivation, cells were treated with either the small molecule drug or DMSO/PBS control at an equivalent volume. […] For infection cycles lasting longer than 24 hours, small molecule drugs were re-added to the cell culture medium every 24 hours. Upon collection, cells were rinsed with PBS, scraped into a microcentrifuge tube, pelleted by centrifugation, and rinsed again with PBS.

## Nc1ccn(C[C@@H](CO)OCP(=O)(O)O)c(=O)n1 [CDV, cidofovir]
  HCMV late gene expression: reduction
1 μM
  HCMV protein levels across all temporal classes of gene expression: substantial decreases
  impact on HCMV IE genes compared to other gene classes: relatively less impacted
1 μM, across all time points
  decrease of HCMV protein UL54: less than 20%
1 μM, by 72 HPI, in more than 85% of the proteins monitored
  decrease in HCMV protein levels compared to PBS control: at least 35%
1 μM, by 120 HPI
  decrease in abundance of HCMV IE protein UL122: ~70%
DE, timepoint 24
  DBP (P17147) protein, numerical value of heatmap FIG. 6C: 0.04283
  HELI (P16736) protein, numerical value of heatmap FIG. 6C: 0.1024
  NEC2 (P16791) protein, numerical value of heatmap FIG. 6C: 0.0159
  RIR1 (P16782) protein, numerical value of heatmap FIG. 6C: 0.04961
  UL26 (P16762) protein, numerical value of heatmap FIG. 6C: 0.04954
  UL32 (P08318) protein, numerical value of heatmap FIG. 6C: 0.01616
  UL34 (P16812) protein, numerical value of heatmap FIG. 6C: 0.05376
  UL38 (P16779) protein, numerical value of heatmap FIG. 6C: 0.5007
  UL44 (P16790) protein, numerical value of heatmap FIG. 6C: 0.0325
  UL54 (P08546) protein, numerical value of heatmap FIG. 6C: 0.2154
  UL71 (P16823) protein, numerical value of heatmap FIG. 6C: 0.2978
  UL78 (P16751) protein, numerical value of heatmap FIG. 6C: 0.1834
  UL84 (P16727) protein, numerical value of heatmap FIG. 6C: 0.0827
  UL96 (P16787) protein, numerical value of heatmap FIG. 6C: 0.339
  UL97 (P16788) protein, numerical value of heatmap FIG. 6C: 0.1685
  UL98 (P16789) protein, numerical value of heatmap FIG. 6C: 0.1785
  UL102 (P16827) protein, numerical value of heatmap FIG. 6C: 0.2917
  UL112/UL113 (P17151) protein, numerical value of heatmap FIG. 6C: 0.3345
  UL114 (P16769) protein, numerical value of heatmap FIG. 6C: 0.3025
  UL119/UL118 (P16739) protein, numerical value of heatmap FIG. 6C: 0.07541
  UL128 (P16837) protein, numerical value of heatmap FIG. 6C: 0.1472
  US8 (P09730) protein, numerical value of heatmap FIG. 6C: 0.3317
  US9 (P09729) protein, numerical value of heatmap FIG. 6C: 0.2308
  US12 (P09721) protein, numerical value of heatmap FIG. 6C: 0.6397
  US13 (P09720) protein, numerical value of heatmap FIG. 6C: 0.2174
  US14 (P09719) protein, numerical value of heatmap FIG. 6C: 0.1903
  US18 (P69334) protein, numerical value of heatmap FIG. 6C: 0.3161
  US22 (P09722) protein, numerical value of heatmap FIG. 6C: 0.1701
  US23 (P09701) protein, numerical value of heatmap FIG. 6C: 0.3435
  US24 (P09700) protein, numerical value of heatmap FIG. 6C: 0.2973
  gB (P06473) protein, numerical value of heatmap FIG. 6C: 0.05133
  sp|P09710|IR01_HCMVA (P09710) protein, numerical value of heatmap FIG. 6C: 0.1514
DE, timepoint 48
  DBP (P17147) protein, numerical value of heatmap FIG. 6C: 0.2386
  HELI (P16736) protein, numerical value of heatmap FIG. 6C: 0.4106
  NEC2 (P16791) protein, numerical value of heatmap FIG. 6C: 0.08567
  RIR1 (P16782) protein, numerical value of heatmap FIG. 6C: 0.1065
  TRM1 (P16724) protein, numerical value of heatmap FIG. 6C: 0.1188
  UL4 (P17146) protein, numerical value of heatmap FIG. 6C: 0.07447
  UL26 (P16762) protein, numerical value of heatmap FIG. 6C: 0.1073
  UL32 (P08318) protein, numerical value of heatmap FIG. 6C: 0.03113
  UL34 (P16812) protein, numerical value of heatmap FIG. 6C: 0.1018
  UL38 (P16779) protein, numerical value of heatmap FIG. 6C: 0.7494
  UL44 (P16790) protein, numerical value of heatmap FIG. 6C: 0.09556
  UL48 (P16785) protein, numerical value of heatmap FIG. 6C: 0.04333
  UL54 (P08546) protein, numerical value of heatmap FIG. 6C: 0.6243
